Read-outs that look alike come from different tables or passages of the source. Square brackets hold non-standard residues; d marks the D form. Peptide text beside a SMILES is read from it. * marks the point of attachment. Sta = CC(C)C[C@H](N)[C@@H](O)CC(=O)O; Isovaleryl = CC(C)CC(=O)*
Biological target: T1, Plasmepsin V (PmV) (Plasmodium falciparum, UniProt Q8I6Z5)
T1 construct: PmV was purified directly from parasites; made in house
Experiment: PmV inhibition, fluorimetric PExEl cleavage assay
Assay type: biochemical
Procedure: Saponin was added to culture to a final 0.05%; parasites were recovered via centrifugation at 4°C after 5 min of incubation on ice; parasite pellets were then washed twice in cold PBS and either immediately lysed or stored at -80°C until lysis. Parasites were lysed via three pulses of ultra-sonication of 10 sec duration, in PBS containing 0.5% Triton-X100 (TX-100). […] Quick washes of the resin were performed either in batches, or over columns, to remove unbound cellular material (four with ice-cold 0.5% TX-100 in PBS and a final one with cold PBS). Resin-bound PmV was stored in PBS at 4°C and used within 2–3 weeks, larger batches had Glycerol added to them, up to 10%, and were stored at -20°C for up to 5 months. […] Quality and purity of PmV batches were routinely confirmed by protein electrophoresis. Quantification of PmV was performed via densitometry analysis of stained protein SDS-PAGE gels relative to BSA standard curves.
PExEl cleavage activity was monitored by fluorimetric measurement of PExEl cleavage, as previously reported. […] PmV activity was performed at 37°C in 50 mM Tris-Maleate, pH 6.5, 50 mM NaCl, 0.05% TX-100, 2 mM DTT. Assays were routinely conducted in triplicate. Bead-bound enzyme was added to the reaction using ‘end-cut’ micropipette tips in order to facilitate sampling the suspension.
Inhibitory activities were measured in the presence of a substrate concentration of 3 μM by serial dilution of each compound in triplicates. […] Titration curves of the inhibitors were routinely composed of eleven points from 10 μM to 0.1 pM. PmV concentration was kept in the order of low picomolar (≤10 pM). […] Analysis of the half inhibitory activity (IC50) was performed by sigmoidal interpolation of the starting velocities of the hydrolytic reactions for each condition. Starting velocities were calculated on the initial linear range of the product progression curves. […] Data are presented with error bars indicating the standard deviation of three independent activity curves.

[1] = 3 μM HRPII-PExEl substrate, averages of not less than three inhibition curves, read-out: IC50
[2] = 3 μM substrate, tested up to 10 μM, read-out: IC50
[3] = Activity, read-out: pIC50 (converted)

T1 sequence (Q8I6Z5 whole entry): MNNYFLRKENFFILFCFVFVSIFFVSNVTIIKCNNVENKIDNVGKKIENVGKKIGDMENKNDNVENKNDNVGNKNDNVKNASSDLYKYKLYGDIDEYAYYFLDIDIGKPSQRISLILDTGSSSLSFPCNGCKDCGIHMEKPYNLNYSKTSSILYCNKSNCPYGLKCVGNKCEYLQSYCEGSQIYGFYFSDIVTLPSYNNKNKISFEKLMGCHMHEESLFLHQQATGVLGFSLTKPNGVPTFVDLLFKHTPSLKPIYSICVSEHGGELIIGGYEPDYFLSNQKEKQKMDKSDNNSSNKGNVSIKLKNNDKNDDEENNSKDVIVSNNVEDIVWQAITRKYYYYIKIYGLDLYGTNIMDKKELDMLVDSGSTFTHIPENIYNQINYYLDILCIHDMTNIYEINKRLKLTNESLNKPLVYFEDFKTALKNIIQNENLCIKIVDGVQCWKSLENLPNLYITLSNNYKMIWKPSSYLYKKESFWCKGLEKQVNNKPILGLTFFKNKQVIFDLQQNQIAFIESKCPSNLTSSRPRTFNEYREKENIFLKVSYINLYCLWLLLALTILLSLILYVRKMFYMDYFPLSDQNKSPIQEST

Row | SMILES | Ki [nM] | IC50 [1] [nM] | IC50 [2] [nM] | IC50 (Activity, read-out: IC50) [nM] | IC50 [3] [nM]
1 | CC(C)C[C@H](NC(=O)[C@@H](N)Cc1c[nH]c2ccccc12)C(=O)N[C@@H](CC(C)C)[C@@H](O)CN[C@@H](C)C(=O)N[C@@H](CCC(N)=O)C(=O)N[C@@H](C)C(N)=O [Compound 19a] | 2760 | 5130 |  |  | 
2 | CC(C)C[C@H](NC(=O)[C@@H](N)Cc1c[nH]cn1)C(=O)N[C@@H](CC(C)C)[C@@H](O)CN[C@@H](Cc1ccc(O)cc1)C(=O)N[C@@H](CCC(N)=O)C(=O)N[C@@H](C)C(N)=O [Compound 20a] | 4410 | 8200 |  |  | 
3 | CC(C)C[C@H](NC(=O)[C@@H](N)Cc1c[nH]c2ccccc12)C(=O)N[C@@H](CC(C)C)[C@@H](O)CN[C@@H](Cc1ccc(O)cc1)C(=O)N[C@@H](CCC(N)=O)C(=O)N[C@@H](C)C(N)=O [Compound 21a] | 673 | 1250 |  |  | 
4 | CC(C)C[C@H](NC(=O)[C@@H](N)CCCNC(=N)N)C(=O)N[C@@H](CC(C)C)[C@@H](O)CN[C@@H](C)C(=O)N[C@@H](CCC(N)=O)C(=O)O [Compound 24a] | 8.9 | 16.6 |  |  | 
5 | CC(C)C[C@H](NC(=O)[C@@H](N)CCCNC(=N)N)C(=O)N[C@@H](CC(C)C)[C@@H](O)CN[C@@H](Cc1ccc(O)cc1)C(=O)N[C@@H](CCC(N)=O)C(=O)O [Compound 26a] | 9.35 | 17.4 |  |  | 
6 | CC(C)C[C@H](NC(=O)[C@@H](N)CCCNC(=N)N)C(=O)N[C@@H](CC(C)C)[C@@H](O)CN[C@@H](Cc1ccc(O)cc1)C(=O)NCC(=O)O [Compound 27a] | 1.86 | 3.47 |  |  | 
7 | CC(C)C[C@H](NC(=O)[C@@H](N)CCCCN)C(=O)N[C@@H](CC(C)C)[C@@H](O)CN[C@@H](Cc1ccc(O)cc1)C(=O)N[C@@H](CCC(=O)O)C(N)=O [Compound 30a] |  |  | > 10000 |  | 
8 | CC(C)C[C@H](NC(=O)[C@@H](N)Cc1c[nH]c2ccccc12)C(=O)N[C@@H](CC(C)C)[C@@H](O)CN[C@@H](Cc1ccc(O)cc1)C(=O)N[C@@H](CCC(=O)O)C(N)=O [Compound 32a] |  |  | > 10000 |  | 
9 | CC(C)C[C@H](NC(=O)[C@@H](N)Cc1c[nH]c2ccccc12)C(=O)N[C@@H](CC(C)C)[C@@H](O)CN[C@@H](CO)C(=O)N[C@@H](CCC(=O)O)C(N)=O [Compound 33a] |  |  | > 10000 |  | 
10 | CC(C)C[C@H](NC(=O)[C@@H](N)Cc1c[nH]c2ccccc12)C(=O)N[C@@H](CC(C)C)[C@@H](O)CN[C@H](C(=O)N[C@@H](CCC(=O)O)C(N)=O)[C@@H](C)O [Compound 34a] |  |  | > 10000 |  | 
11 | CC(C)C[C@H](NC(=O)[C@@H](N)CCCNC(=N)N)C(=O)N[C@@H](CC(C)C)C(O)CN[C@@H](C)C(=O)N[C@@H](CCC(=O)O)C(=O)N[C@@H](C)C(N)=O (stereo partly drawn) [LG20_Mix] |  |  |  | 0.37 | 0.363
12 | CC(C)C[C@H](NC(=O)[C@@H](N)CCCCN)C(=O)N[C@@H](CC(C)C)[C@@H](O)CN[C@@H](C)C(=O)N[C@@H](CCC(=O)O)C(N)=O [LG61A_S] |  |  |  | 8180 | 8130
13 | CC(C)C[C@H](NC(=O)[C@@H](N)CCCCN)C(=O)N[C@@H](CC(C)C)[C@@H](O)CN[C@@H](Cc1ccc(O)cc1)C(=O)N[C@@H](CCC(=O)O)C(N)=O [LG62A_S] |  |  |  | 17500 | 17400
14 | CCCCCCCC(=O)N[C@@H](CCCNC(=N)N)C(=O)N[C@@H](CC(C)C)C(=O)N[C@@H](CC(C)C)[C@H](O)CN[C@@H](Cc1ccc(O)cc1)C(=O)N[C@@H](CCC(=O)O)C(=O)N[C@@H](C)C(N)=O [LG63B_R] |  |  |  | 1.57 | 1.58
15 | CC(C)C[C@H](NC(=O)[C@@H](N)CCCNC(=N)N)C(=O)N[C@@H](CC(C)C)[C@H](O)CN[C@@H](Cc1ccc(O)cc1)C(=O)NCC(=O)O [LG69B_R] |  |  |  | 111 | 112
16 | Cc1cccc(C)c1OCC(=O)N[C@@H](Cc1ccccc1)[C@@H](O)C[C@H](Cc1ccccc1)NC(=O)[C@H](C(C)C)N1CCCNC1=O [Lopinavir, reference compound] | 11000 | 20600 |  |  | 
17 | CC(C)CC(=O)N[C@H](C(=O)N[C@H](C(=O)N[C@@H](CC(C)C)[C@@H](O)CC(=O)N[C@@H](C)C(=O)N[C@@H](CC(C)C)[C@@H](O)CC(=O)O)C(C)C)C(C)C [Pepstatin A, reference compound] (Isovaleryl-VV[Sta]A[Sta]-OH) | 23400 | 43500 |  |  | 
